Data: patent US9127044B2, “Cyclic depsipeptides” (NOVARTIS AG, priority 2007, dated 2015)
Where two headings read alike, the source gives them in different places. *1 amine or outer side, *2 acyl side, *3 side chain or, on linkers, in order; H or OH if unused. Where a SMILES comes first, the peptide text is derived from it. Bridges are numbered along the chain shown (N, C = ends). [ ]: non-standard residue; d: D form. The star is where a group is joined. ξ: configuration not given here. X1 = O=C([C@@H]1CC[C@H](O)N1[*:1])[*:2]; NMeY = CN[C@@H](Cc1ccc(O)cc1)C(=O)O; Ile(3ξ) = CCC(C)[C@H](N)C(=O)O; Isovaleryl = CC(C)CC(=O)*; Isobutyryl = CC(C)C(=O)*

What was measured:
human kallikrein 7 = human kallikrein 7 (Homo sapiens, UniProt P49862); experiment: Kallikrein-7 inhibitory activity in vitro (fluorescence-quenched substrate); type: biochemical
Sequence of human kallikrein 7 (P49862 30-253): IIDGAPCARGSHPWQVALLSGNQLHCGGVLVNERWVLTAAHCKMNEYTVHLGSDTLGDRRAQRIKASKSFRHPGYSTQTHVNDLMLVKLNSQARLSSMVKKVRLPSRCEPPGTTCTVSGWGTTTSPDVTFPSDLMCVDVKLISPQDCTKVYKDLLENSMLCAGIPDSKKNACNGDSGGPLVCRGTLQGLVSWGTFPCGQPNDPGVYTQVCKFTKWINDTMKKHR
Description: (§1) IC50 for human kallikrein can be measured using the fluorescence-quenched substrate Ac-Glu-Asp(EDANS)-Lys-Pro-Ale-Leu-Phe^Arg-Leu-Gly-Lys(DABCYL)-Glu-NH2 (where ^ indicates the scissile bond, identified by MS analysis) which can be purchased from Biosyntan (Berlin, Germany). Enzymatic reactions are conducted in 50 mM sodium citrate buffer at pH 5.6 containing 150 mM NaCl and 0.05% (w/v) CHAPS. For the determination of IC50 values the assay is performed at room temperature in 384-well plates. All final assay volumes are 30 μl. Test compounds are dissolved in 90% (v/v) DMSO/water and diluted in water (containing 0.05% (w/v) CHAPS) to 3-times the desired assay concentration. The 11 final compound concentrations are: 0.3 nM, 1 nM, 3 nM, 10 nM, 30 nM, 100 nM, 300 nM, 1 μM, 3 μM, 10 μM and 30 μM. For each assay, 10 μl water/CHAPS (±test compound) are added per well, followed by 10 μl protease solution (diluted with 1.5× assay buffer). The protease concentration in final assay solution is 0.2 nM (according to the enzyme concentrations determined by the Bradford method). After 1 hour of incubation at room temperature, the reaction is started by addition of 10 μl substrate solution (substrate dissolved in 1.5× assay buffer, final concentration is 2 μM). […] The IC50 value is calculated from the plot of percentage of inhibition vs. inhibitor concentration using non-linear regression analysis software (XLfit, Vers. 4.0; ID Business Solution Ltd., Guildford, Surrey, UK).
The fluorescence-quenched substrate Ac-Glu-Asp(EDANS)-Lys-Pro-Ale-Leu-Phe^Arg-Leu-Gly-Lys(DABCYL)-Glu-NH2 (where ^ indicates the scissile bond, identified by MS analysis) is purchased from Biosyntan (Berlin, Germany) and kept as a 5 mM stock solution in DMSO at −20° C. All other chemicals are of analytical grade.
Enzymatic reactions are conducted in 50 mM sodium citrate buffer at pH 5.6 containing 150 mM NaCl and 0.05% (w/v) CHAPS.
All protein and peptide containing solutions are handled in siliconized tubes (Life Systems Design, Merenschwand, Switzerland). The compound solutions as well as the enzyme and the substrate solutions are transferred to the 384-well plates (black Cliniplate; cat. no. 95040020 Labsystems Oy, Finland) by means of a CyBi-Well 96-channel pipettor (CyBio AG, Jena, Germany).
(§2) For fluorescence intensity (FI) measurements an Ultra Evolution reader (TECAN, Maennedorf, Switzerland) is used. The instrument is equipped with a combination of a 350 nm (20 nm bandwidth) and a 500 nm (25 nm bandwidth) bandpass filter for fluorescence excitation and emission acquisition, respectively. To increase the signal:background ratio, an appropriate dichroic mirror is employed. The optical filters and the dichroic mirror are purchased from TECAN. The fluorophores in each well are excited by three flashes per measurement.
as §1, with “For” for “IC50 for human kallikrein can be measured using the fluorescence-quenched substrate Ac-Glu-Asp(EDANS)-Lys-Pro-Ale-Leu-Phe^Arg-Leu-Gly-Lys(DABCYL)-Glu-NH2 (where ^ indicates the scissile bond, identified by MS analysis) which can be purchased from Biosyntan (Berlin, Germany). Enzymatic reactions are conducted in 50 mM sodium citrate buffer at pH 5.6 containing 150 mM NaCl and 0.05% (w/v) CHAPS. For”, “volumes were” for “volumes are”, “concentration was” for “concentration is”

[1] = target: T1, Human neutrophil elastase (Homo sapiens, UniProt P08246); experiment: HNE inhibitory activity in vitro (fluorescence-quenched substrate); type: biochemical
T1 construct: purchased Elastin Products Company, Inc. (EPC, Owensville, USA) SE563
T1 sequence (P08246 30-267): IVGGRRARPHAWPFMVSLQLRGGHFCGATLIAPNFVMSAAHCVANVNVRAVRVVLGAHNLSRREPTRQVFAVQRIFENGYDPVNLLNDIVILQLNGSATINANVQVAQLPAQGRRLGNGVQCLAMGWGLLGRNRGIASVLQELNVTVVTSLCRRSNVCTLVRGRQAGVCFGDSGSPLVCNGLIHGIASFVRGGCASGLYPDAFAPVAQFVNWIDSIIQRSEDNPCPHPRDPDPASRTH
Description: Human neutrophil elastase (cat. no. SE563) is purchased from Elastin Products Company, Inc. (EPC, Owensville, USA). The dry powder (purity >95% stated by the supplier) was dissolved in 20 mM sodium acetate buffer, pH 5.0, 50% (v/v) glycerol, and frozen at −80° C. in aliquots.
The fluorescence-quenched substrate (DABCYL-Ser-Glu-Val^Asn-Leu-Asp-Ala-Glu-Phe-EDANS, where ^ indicates the scissile bond, identified by MS analysis) was purchased from Bachem AG (Bubendorf, Switzerland), and kept as a 5 mM stock solution in DMSO at −20° C. All other chemicals were of analytical grade.
Enzymatic reactions were conducted in 100 mM Tris/HCl buffer at pH 7.5, containing 500 mM NaCl, and 0.05% (w/v) CHAPS.
All protein and peptide containing solutions are handled in siliconized tubes (Life Systems Design, Merenschwand, Switzerland).
The compound solutions as well as the enzyme and the substrate solutions are transferred to the 384-well plates (black Cliniplate; cat. no. 95040020 Labsystems Oy, Finland) by means of a CyBi-Well 96-channel pipettor (CyBio AG, Jena, Germany).
as §2

[2] = Table 11, read-out: hKallikrein7 IC 50
[3] = Table 11, read-out: human neutrophile elastase IC 50

Compound | IC50 (human kallikrein 7; [2]) | IC50 [1, 3] | IC50 (human kallikrein 7; read-out: IC50 for human kallikrein 7) | IC50 (human kallikrein 7; hKallikrein7 IC 50, Table 11) | IC50 [1] | IC50 (human kallikrein 7; hKallikrein7 IC50, Table 10)
CCCOC1CCC2NC(=O)C(CC(C)C)NC(=O)C(NC(=O)C(CCC(N)=O)NC(=O)C(C)C)C(C)OC(=O)C(C(C)CC)NC(=O)C(Cc3ccc(OCC=Cc4ccccc4)cc3)N(C)C(=O)C(C(C)CC)N1C2=O (stereo not shown) [example 32] | 100 nM | 30 nM |  |  |  | 
CCC(C)[C@@H]1NC(=O)[C@H](Cc2ccc(OCC(=O)OC(C)(C)C)cc2)N(C)C(=O)[C@H](C(C)CC)N2CCCC(NC(=O)[C@H](CC(C)C)NC(=O)[C@@H](NC(=O)[C@H](CCC(N)=O)NC(=O)C(C)C)[C@@H](C)OC1=O)C2=O (stereo partly shown) [example 33] | 4.5 nM | 35 nM | 5 nM |  |  | 
CCCOC1CCC2NC(=O)C(CC(C)C)NC(=O)C(NC(=O)C(CCC(N)=O)NC(=O)C(C)C)C(C)OC(=O)C(C(C)CC)NC(=O)C(Cc3ccc(OCC(=O)OC(C)(C)C)cc3)N(C)C(=O)C(C(C)CC)N1C2=O (stereo not shown) [example 34] | 4 nM | 5 nM |  |  |  | 
CCCOC1CCC2NC(=O)C(CC(C)C)NC(=O)C(NC(=O)C(CCC(N)=O)NC(=O)C(C)C)C(C)OC(=O)C(C(C)CC)NC(=O)C(Cc3ccc(OCC=CC(F)(F)F)cc3)N(C)C(=O)C(C(C)CC)N1C2=O (stereo not shown) [example 36] | 8.5 nM | 3.5 nM |  |  |  | 
CCCOC1CCC2NC(=O)C(CC(C)C)NC(=O)C(NC(=O)C(CCC(N)=O)NC(=O)C(C)C)C(C)OC(=O)C(C(C)CC)NC(=O)C(Cc3ccc(OCC=C(C)C)cc3)N(C)C(=O)C(C(C)CC)N1C2=O (stereo not shown) [example 38] | 4 nM | 1.5 nM |  |  |  | 
CCCOC1CCC2NC(=O)C(CC(C)C)NC(=O)C(NC(=O)C(CCC(N)=O)NC(=O)C(C)C)C(C)OC(=O)C(C(C)CC)NC(=O)C(Cc3ccc(OCc4ccccc4)cc3)N(C)C(=O)C(C(C)CC)N1C2=O (stereo not shown) [example 39] | 8.5 nM | 3.5 nM |  |  |  | 
CCC(C)[C@@H]1NC(=O)[C@H](Cc2ccc(OCC(=O)NCCOCCOCC(=O)OC(C)(C)C)cc2)N(C)C(=O)[C@H](C(C)CC)N2CCCC(NC(=O)[C@H](CC(C)C)NC(=O)[C@@H](NC(=O)[C@H](CCC(N)=O)NC(=O)C(C)C)[C@@H](C)OC1=O)C2=O (stereo partly shown) [example 44] | 3.5 nM | 9 nM |  |  |  | 
CCC(C)[C@@H]1NC(=O)[C@H](Cc2ccc(O)cc2)N(C)C(=O)[C@H](C(C)CC)NC(=O)[C@@H]2CC[C@H](O)N2C(=O)[C@H](CC(C)C)NC(=O)[C@@H](NC(=O)[C@H](CCC(N)=O)NC(=O)C(C)C)[C@@H](C)OC1=O (stereo partly shown) [example 46] (Isobutyryl-QTL[X1][Ile(3ξ)][NMeY][Ile(3ξ)]; ester 2-C) |  |  |  | 10 nM | 100 nM | 
CCC(C)[C@@H]1NC(=O)[C@H](Cc2ccc(O)cc2)N(C)C(=O)[C@H](C(C)CC)N2C(=O)C(CC[C@@H]2O)NC(=O)[C@H](CC(C)C)NC(=O)[C@@H](NC(=O)[C@H](CCC(=O)O)NC(=O)C(C)C)[C@@H](C)OC1=O (stereo partly shown) [example 47] |  |  |  | 100 nM | 10 nM | 
CCC(C)C(=O)N[C@@H](CCC(N)=O)C(=O)N[C@@H]1C(=O)N[C@@H](CC(C)C)C(=O)NC2CC[C@H](O)N(C2=O)[C@@H](C(C)CC)C(=O)N(C)[C@@H](Cc2ccc(O)cc2)C(=O)N[C@@H](C(C)CC)C(=O)O[C@@H]1C (stereo partly shown) [formula III] |  |  |  | 0.4 nM | 10 nM | 0.4 nM
CCC(C)C(=O)N[C@@H](CCC(N)=O)C(=O)N[C@@H]1C(=O)N[C@@H](CC(C)C)C(=O)N[C@H]2CC=CN(C2=O)[C@H](C(C)CC)C(=O)N(C)[C@@H](Cc2ccc(O)cc2)C(=O)N[C@@H](C(C)CC)C(=O)O[C@@H]1C (stereo partly shown) [formula IV] |  |  |  | 5 nM | 70 nM | 
CC(C)CC(=O)N[C@@H](CCC(N)=O)C(=O)N[C@@H]1C(=O)N[C@@H](CC(C)C)C(=O)N2CCC[C@@H]2C(=O)N[C@@H](Cc2ccccc2)C(=O)N(C)[C@@H](Cc2ccc(O)cc2)C(=O)N[C@@H](C(C)C)C(=O)O[C@@H]1C [formula IX] (Isovaleryl-QTL[dP]F[NMeY]V; ester 2-C) | 1 nM | 10 nM |  |  |  | 
CCC(C)[C@@H]1NC(=O)[C@H](Cc2ccc(O)cc2)N(C)C(=O)[C@@H](C(C)CC)N2C=CC[C@H](NC(=O)[C@H](CC(C)C)NC(=O)[C@@H](NC(=O)[C@H](CCC(N)=O)NC(=O)C(C)C)[C@@H](C)OC1=O)C2=O (stereo partly shown) [formula V] |  |  |  | 6 nM | 60 nM | 

Second part, led by results:

IC50 (human kallikrein 7; [2]) | IC50 [1, 3] | IC50 (human kallikrein 7; read-out: IC50 for human kallikrein 7) | Compound | IC50 (human kallikrein 7; hKallikrein7 IC 50, Table 11) | IC50 [1] | IC50 (human kallikrein 7; hKallikrein7 IC50, Table 10)
8.5 nM | 3 nM |  | CCC=CCOc1ccc(CC2C(=O)NC(C(C)CC)C(=O)OC(C)C(NC(=O)C(CCC(N)=O)NC(=O)C(C)C)C(=O)NC(CC(C)C)C(=O)NC3CCC(OCCC)N(C3=O)C(C(C)CC)C(=O)N2C)cc1 (stereo not shown) [example 35] |  |  | 
4.5 nM | 2.5 nM |  | CCCOC1CCC2NC(=O)C(CC(C)C)NC(=O)C(NC(=O)C(CCC(N)=O)NC(=O)C(C)C)C(C)OC(=O)C(C(C)CC)NC(=O)C(Cc3ccc(OC)cc3)N(C)C(=O)C(C(C)CC)N1C2=O (stereo not shown) [example 37] |  |  | 
6.5 nM | 2.5 nM |  | C=CCOc1ccc(CC2C(=O)NC(C(C)CC)C(=O)OC(C)C(NC(=O)C(CCC(N)=O)NC(=O)C(C)C)C(=O)NC(CC(C)C)C(=O)NC3CCC(OCCC)N(C3=O)C(C(C)CC)C(=O)N2C)cc1 (stereo not shown) [example 40] |  |  | 
2 nM | 1 nM |  | C#CCOc1ccc(CC2C(=O)NC(C(C)CC)C(=O)OC(C)C(NC(=O)C(CCC(N)=O)NC(=O)C(C)C)C(=O)NC(CC(C)C)C(=O)NC3CCC(OCCC)N(C3=O)C(C(C)CC)C(=O)N2C)cc1 (stereo not shown) [example 41] |  |  | 
1 nM | 1 nM |  | CCCOC1CCC2NC(=O)C(CC(C)C)NC(=O)C(NC(=O)C(CCC(N)=O)NC(=O)C(C)C)C(C)OC(=O)C(C(C)CC)NC(=O)C(Cc3ccc(OCc4cc(C)n(C)n4)cc3)N(C)C(=O)C(C(C)CC)N1C2=O (stereo not shown) [example 42] |  |  | 
2 nM | 3 nM |  | CCCOC1CCC2NC(=O)C(CC(C)C)NC(=O)C(NC(=O)C(CCC(N)=O)NC(=O)C(C)C)C(C)OC(=O)C(C(C)CC)NC(=O)C(Cc3ccc(OCc4cn(CCOCCOCCN=[N+]=[N-])nn4)cc3)N(C)C(=O)C(C(C)CC)N1C2=O (stereo not shown) [example 45] |  |  | 
